Measurements from patent US8633005B2, “Isocyclomaltooligosaccharide(s), isocyclomaltooligosaccharide-forming enzyme, their preparation and uses” (Hayashibara Co., Ltd., priority 2004, dated 2014).

B1: ICM-forming enzyme: enzyme from Bacillus circulans AM7 (FERM BP-10111) forming ICM from α-1,4 glucans; amino acid sequence SEQ ID NO:2 (protein)
chain: ASIGTVTENDTIYQIMVDRFNDGDSSNNATGAAIRYGENSEEDFRYMKGGDWQGVIDKLPYIHNMGYTAIWISPVAEPQMTNRENNGTGKNTAYHGYNVKDPNKANPYFGTKEKLKELVDSAHALGIKVIIDVVPNHIGDYMLGTQAFYDIPSLQPAAPFNNPAWYHHNGDINWSLADGRYDQWAQDYLENHDLGGLDDIDFDVPAAKQAIFSSIKGWFDYTGADGARVDAAKLMKPTDIGELQNLLGVNTFGENFDGNAEFVSRWVGTNKEWGMLDFPLFFSVLNSFAYGQSFDANIKGTLAQDSYYGGNANHMVTFIDNHDRNRFLTEAGGSVEKLQNALSFIFTVRGTPVVFQGTEQNKGNGNGQIMTGGIADTWNRWSMVKRDANGNVLENYFNENASTFKHVAKLNEIRKNNPALRTGTQREMWSAQNLYAFSRRIDTGTNVGQEVISAFSNASGGSQTVTLPLRAESTLTAGTVLVNQLNPSDTVTVQAGGVTGKQITVTLGANSAKIYAKTQPVTDTQAPSVPGNVTATVQNASSALVSWSASTDNVGVTGYEIYRNGVKIGTSATTSFTDNGLVGSTNYSYTVKAYDAAMNLSAFSAAALIVTPAGNSVTIYYKQGYTNPYIHYRPVGGTWTTSPGVAIPAAEVAGYNKITINIGAATQLEACFNNGSGIWDSNGGSNYLFGTGTWTYTPTGNIQAGGPVTPTASPTATPTVAPTATPTVTPTPTPTATPTVAPTATPTVAPTATPVPTATPAGNTATIYYKNTAFSNSYIHYKLDGATTWTTSPGVPMQASTFSGYKSITIPLGTATGLTAAFNNGSGTWDSNGGNNYHFGTGSSSLVGGSLTTGEPQADSVTFRVSVPGSTPANAPVYLTGSFNSWNAADTAYLLTRGSDGVYSVTLNLPAGTAVTYKLTRGSWATVETTSSGADITNRTLTPAGGAQTVTISVQRWKDQ
modifications: Bacillus circulans

Tested on: ICM-forming enzyme
Assay: Effects of metal ions on the enzyme activity
Format: biochemical, Bacillus circulans AM7
Conditions: not given

**Q.** Which Relative activity does the source give for `[Cl-].[Cl-].[Co+2]` [CoCl2] here?
**A.** 100%

Same assay, conditions: 1 mM metal salt

**Q.** With `O=C(O)CN(CCN(CC(=O)O)CC(=O)O)CC(=O)O` [EDTA] as the molecule, how does the “Inhibition of ICM-forming enzyme activity” value (from here on “Inhibition”) read?
**A.** inhibited slightly

**Q.** Which “Inhibition” value does the source give for `[Cl][Hg][Cl]` [HgCl2] here?
**A.** 45%

**Q.** With `[Cl][Fe]([Cl])[Cl]` [FeCl3] as the molecule, how does the “Inhibition” value read?
**A.** about 20%

**Q.** Which “Inhibition” value does the source give for `[Cl][Cu][Cl]` [CuCl2] here?
**A.** about 20%

Same assay, conditions: 1 mM metal salt; None = 100

**Q.** With `O=C(O)CN(CCN(CC(=O)O)CC(=O)O)CC(=O)O` [EDTA] as the molecule, how does the Relative activity read?
**A.** 86%

**Q.** With `[Cl][Al]([Cl])[Cl]` [AlCl3] as the molecule, how does the Relative activity read?
**A.** 106%

**Q.** With `[Ba+2].[Cl-].[Cl-]` [BaCl2] as the molecule, how does the Relative activity read?
**A.** 99%

**Q.** For `[Cl-].[Cl-].[Zn+2]` [ZnCl2], which Relative activity is on record?
**A.** 113%

**Q.** Which Relative activity does the source give for `[Cl][Hg][Cl]` [HgCl2] here?
**A.** 55%

**Q.** For `[Cl-].[Cl-].[Mg+2]` [MgCl2], which Relative activity is on record?
**A.** 110%

**Q.** With `[Cl][Fe]([Cl])[Cl]` [FeCl3] as the molecule, how does the Relative activity read?
**A.** 82%

**Q.** For `[Ca+2].[Cl-].[Cl-]` [CaCl2], which Relative activity is on record?
**A.** 105%

**Q.** Which Relative activity does the source give for `[Cl][Mn][Cl]` [MnCl2] here?
**A.** 108%

**Q.** For `[Cl][Pb][Cl]` [PbCl2], which Relative activity is on record?
**A.** 130%

**Q.** Which Relative activity does the source give for `[Cl][Ni][Cl]` [NiCl2] here?
**A.** 105%

**Q.** With `[Cl][Fe][Cl]` [FeCl2] as the molecule, how does the Relative activity read?
**A.** 94%

**Q.** With `[Cl][Cu][Cl]` [CuCl2] as the molecule, how does the Relative activity read?
**A.** 79%

**Q.** Which Relative activity does the source give for `[Cl-].[Cl-].[Sr+2]` [SrCl2] here?
**A.** 100%

Tested on: not listed separately
Assay: Reducing power by the Somogyi-Nelson method
Format: physicochemical
Conditions: not given
Text: It was concluded that Saccharides I and II were substantially non-reducing saccharides.

**Q.** Which Reducing power does the source give for `OCC1OC2OC3C(CO)OC(OC4C(CO)OC(OC5C(CO)OC(OC6C(CO)OC(OCC7OC(OC1C(O)C2O)C(O)C(O)C7O)C(O)C6O)C(O)C5O)C(O)C4O)C(O)C3O` [ICG6, cyclo{→6)-α-D-glucopyranosyl-(1→4)-α-D-glucopyranosyl-(1→4)-α-D-glucopyranosyl-(1→4)-α-D-glucopyranosyl-(1→4)-α-D-glucopyranosyl-(1→4)-α-D-glucopyranosyl-(1→}] here?
**A.** less than the measurable limit

Tested on: not listed separately
Assay: Optimum temperature and pH for the enzyme reaction
Format: biochemical, Bacillus circulans AM7
Conditions: enzyme purified from Bacillus circulans AM7; 30° C. for 30 min
Protocol: The enzyme activity of ICM-forming enzyme of the present invention can be assayed as follows: A substrate solution is prepared by dissolving amylose in 50 mM acetate buffer (pH 6.0) containing 1 mM CaCl2 to give a concentration of 1.25% (w/v). 0.2 ml of an enzyme solution is added to 0.8 ml of the substrate solution, and the mixture solution is incubated at 30° C. for 30 mm. After stopping the reaction by heating at about 100° C. for 10 min, the reaction mixture is admixed with 4,000 units/g-solid of α-glucosidase and 250 units/g-solid of glucoamylase to hydrolyze the remaining soluble starch and concomitant oligosaccharides, and followed by the enzyme treatment at 50° C. for one hour. The amount of ICG5 contained in the treated mixture is determined by HPLC described later in Experiment 1. One unit activity of ICM-forming enzyme is defined as the amount of enzyme which forms one μmole of ICG5 per minute under the above conditions.
The results are in FIG. 9 (Optimum temperature) and FIG. 10 (Optimum pH), respectively.

**Q.** Which “Optimum pH” value does the source give for B1 here?
**A.** 4.5 to 8.0

Same assay, conditions: enzyme purified from Bacillus circulans AM7; pH 6.0 for 30 min

**Q.** For B1, which Optimum temperature is on record?
**A.** 50 to 55 °C

Same assay, conditions: recombinant enzyme from transformant ETAM1; 30° C. for 30 min

**Q.** Which “Optimum pH” value does the source give for B1 here?
**A.** 4.5 to 8.0

Same assay, conditions: recombinant enzyme from transformant ETAM1; pH 6.0 for 30 min

**Q.** With B1 as the molecule, how does the Optimum temperature read?
**A.** 50 to 55 °C

Tested on: ICM-forming enzyme
Assay: Action on various saccharides (substrate specificity, TLC)
Format: biochemical, Bacillus circulans AM7
Design: key: −: Not changed; +: Spot of substrate is slightly decreased and the formation of ICM are detected; ++: Spot of substrate is markedly decreased and the formation of ICM are detected; +++: Spot of substrate is virtually disappeared and the formation of ICM are detected
Conditions: substrate 2% (w/v), one unit/g-substrate enzyme, 40° C., pH 6.0, 24 hours
Protocol: Substrate specificity of ICM-forming enzyme was investigated using various saccharides as substrates. Substrate solutions were prepared by dissolving maltose, maltotriose, maltotetraose, maltopentaose, maltohexaose, maltoheptaose, neotrehalose, trehalose, kojibiose, nigerose, isomaltose, isomaltotriose, panose, isopanose, maltitol, maltotriitol, α-, β-, or γ-cyclodextrin, amylose, soluble starch, glycogen, pullulan or dextran in water. Each substrate solution was admixed with acetate buffer (pH 6.0) and CaCl2 to give final concentrations of 20 mM and 1 mM, respectively. […] Substrate concentration was set to 2% (w/v) and followed by the enzyme reaction at 40° C. and pH 6.0 for 24 hours. To examine the saccharides in each mixture before and after the reaction, saccharides were separated by silica gel thin-layer chromatography (hereinafter, simply abbreviated as “TLC”) using “KIESELGEL 60”, a TLC aluminum plate (10×20 cm) and a solvent (n-butanol/pyridine/water, volume ratio of 6:4:1) and two-times ascending method. The separated saccharides on the plate were detected by visualizing the spots with sulfate-methanol method. By the above TLC analyses, the enzymatic action and the degree of the reaction of ICM-forming enzyme on each substrate were confirmed.

**Q.** Which Action does the source give for `OC[C@H]1O[C@H](O[C@H]2[C@H](O)[C@@H](CO)OC(O)[C@@H]2O)[C@H](O)[C@@H](O)[C@@H]1O` (stereo partly drawn) [Nigerose, nigerose] here?
**A.** −

**Q.** For `OC[C@H]1O[C@H](OC[C@H]2OC(O)[C@H](O)[C@@H](O)[C@@H]2O)[C@H](O)[C@@H](O)[C@@H]1O` (stereo partly drawn) [Isomaltose, isomaltose], which Action is on record?
**A.** −

**Q.** For `OC[C@H]1O[C@H](OC[C@H]2O[C@H](OC[C@H]3OC(O)[C@H](O)[C@@H](O)[C@@H]3O)[C@H](O)[C@@H](O)[C@@H]2O)[C@H](O)[C@@H](O)[C@@H]1O` (stereo partly drawn) [Isomaltotriose, isomaltotriose], which Action is on record?
**A.** −

**Q.** Which Action does the source give for `OC[C@H]1O[C@H](O[C@H]2O[C@H](CO)[C@@H](O)[C@H](O)[C@H]2O)[C@H](O)[C@@H](O)[C@@H]1O` [Trehalose, trehalose] here?
**A.** −

**Q.** For `OC[C@@H](O)[C@@H](O[C@H]1O[C@H](CO)[C@@H](O)[C@H](O)[C@H]1O)[C@H](O)[C@@H](O)CO` [Maltitol, maltitol], which Action is on record?
**A.** −

**Q.** Which Action does the source give for pullulan here?
**A.** −

**Q.** For maltopentaose, which Action is on record?
**A.** +++

**Q.** For `OC[C@@H](O)[C@@H](O[C@H]1O[C@H](CO)[C@@H](O[C@H]2O[C@H](CO)[C@@H](O)[C@H](O)[C@H]2O)[C@H](O)[C@H]1O)[C@H](O)[C@@H](O)CO` [Maltotriitol, maltotriitol], which Action is on record?
**A.** −

**Q.** Which Action does the source give for `OC[C@H]1O[C@H](O[C@H]2[C@H](O)[C@@H](O)C(O)O[C@@H]2CO)[C@H](O)[C@@H](O)[C@@H]1O` (mixture of isomers) [Maltose, maltose] here?
**A.** −

**Q.** With maltotriose as the molecule, how does the Action read?
**A.** +

**Q.** With dextran as the molecule, how does the Action read?
**A.** −

**Q.** Which Action does the source give for amylose here?
**A.** +++

**Q.** With soluble starch as the molecule, how does the Action read?
**A.** ++

**Q.** With maltoheptaose as the molecule, how does the Action read?
**A.** +++

**Q.** With `OC[C@H]1O[C@H](O[C@H]2C(O)O[C@H](CO)[C@@H](O)[C@@H]2O)[C@H](O)[C@@H](O)[C@@H]1O` (stereo partly drawn) [Kojibiose, kojibiose] as the molecule, how does the Action read?
**A.** −

**Q.** With `OC[C@H]1O[C@@H](O[C@H]2O[C@H](CO)[C@@H](O)[C@H](O)[C@H]2O)[C@H](O)[C@@H](O)[C@@H]1O` [Neotrehalose, neotrehalose] as the molecule, how does the Action read?
**A.** −

**Q.** For `OC[C@H]1O[C@H](OC[C@H]2O[C@H](O[C@H]3[C@H](O)[C@@H](O)C(O)O[C@@H]3CO)[C@H](O)[C@@H](O)[C@@H]2O)[C@H](O)[C@@H](O)[C@@H]1O` (stereo partly drawn) [Panose, panose], which Action is on record?
**A.** −

**Q.** For `OC[C@H]1O[C@H](O[C@H]2[C@H](O)[C@@H](O)[C@@H](OC[C@H]3OC(O)[C@H](O)[C@@H](O)[C@@H]3O)O[C@@H]2CO)[C@H](O)[C@@H](O)[C@@H]1O` (stereo partly drawn) [Isopanose, isopanose], which Action is on record?
**A.** −

**Q.** Which Action does the source give for maltohexaose here?
**A.** +++

**Q.** For glycogen, which Action is on record?
**A.** +

**Q.** For `OC[C@H]1O[C@H](O[C@H]2[C@H](O)[C@@H](O)[C@@H](O[C@H]3[C@H](O)[C@@H](O)[C@@H](O[C@H]4[C@H](O)[C@@H](O)C(O)O[C@@H]4CO)O[C@@H]3CO)O[C@@H]2CO)[C@H](O)[C@@H](O)[C@@H]1O` (stereo partly drawn) [Maltotetraose, maltotetraose], which Action is on record?
**A.** ++
